Measurements taken from PMC11026403 (Communications Biology, 2024).
pIC50: −log10 of the molar value.

Target: A/Denmark/528/2009 (H1N1)pdm09 NA-H274Y (Influenza A virus, UniProt C3W5S3, H275Y)
Format: biochemical, Influenza A virus A/Denmark/528/2009 (H1N1)pdm09

Row | Structure (SMILES) | pIC50 | NAI susceptibility classification (WHO guidance)
1 | CCC(CC)[C@H](NC(C)=O)[C@@H]1[C@H](O)[C@@H](C(=O)O)C[C@H]1N=C(N)N [peramivir] | 7.63 | highly reduced inhibition (key: <10-fold, normal inhibition; 10–100 fold, reduced inhibition; >100-fold, highly reduced inhibition)
2 | CCC(CC)O[C@@H]1C=C(C(=O)O)C[C@H](N)[C@H]1NC(C)=O [oseltamivir, oseltamivir carboxylate] |  | highly reduced inhibition (key: <10-fold, normal inhibition; 10–100 fold, reduced inhibition; >100-fold, highly reduced inhibition)
